Experimental data: article PMC3001897, “High-Throughput Chemical Screen Identifies a Novel Potent Modulator of Cellular Circadian Rhythms and Reveals CKIα as a Clock Regulatory Kinase” (PLoS Biology, 2010)
One block for each compound: values may come before it.

What was measured:
cultured cells = system: cultured cells; set-up: method as in PMID 16983144, PMID 15767683, PMID 17876059; conditions: ref [14],[16]–[17]; cited from earlier work
ERK2 = biological target: T1, ERK2 (Homo sapiens, UniProt P28482); test: In vitro kinase assay, ERK2; format: biochemical
T1 construct: purchased Millipore 14-550
Experimental: (§1) The CKIδ, CKIα, CDK7, and ERK2 kinase assays were performed on 384-well plates (10 µl volume). The reaction mixture was as follows: for CKIδ, 2 ng/µl CKIδ (Millipore, 14-520), 50 µM peptide substrate RKKKAEpSVASLTSQCSYSS corresponding to human PER2 Lys659-Ser674 [47], and CKI buffer (40 mM Tris, 10 mM MgCl2, 0.5 mM DTT, 0.1 mg/ml BSA, pH 7.5); for CKIα, 1 ng/µl CKIα (Invitrogen, PV3850), 50 µM CKI peptide substrate (Anaspec, 60547-1), and CKI buffer; for CDK7, 5 ng/µl CDK7 (Millipore, 14-476), 100 µM Cdk7/9 peptide substrate (Millipore, 12-526), and CKI buffer; for ERK2, 1.5 ng/µl ERK2 (Millipore, 14-550), 0.8 µg/µl MBP (Millipore, 13-104), and ERK buffer (50 mM Tris, 10 mM MgCl2, 0.5 mM DTT, 1 mM EGTA, pH 7.5). Five hundred nl of compound was added to the mixture (final 5% DMSO), and the reaction was started by adding ATP (final 5 µM). After incubation at 30°C for 3h, 10 µl of Kinase-Glo Luminescent Kinase Assay reagent (Promega) was added, and the luminescence was detected to determine remaining ATP amount. […] IC50 value was obtained by using Prism software (GraphPad Software).

CDK7 = biological target: T2, CDK7 (Homo sapiens, UniProt P50613); test: In vitro kinase assay, CDK7; format: biochemical
T2 construct: purchased Millipore 14-476
Experimental: as §1

CKIα = CKIα (Homo sapiens, UniProt P48729); test: In vitro kinase assay, CKIα; format: biochemical; set-up: purchased Invitrogen PV3850
Experimental: as §1

Bmal1-dLuc U2OS cells [1] = test: U2OS cell-based circadian assay (Bmal1-dLuc luminescence rhythms); set-up: species or system human; conditions: Bmal1-dLuc U2OS cells; for Effect on circadian period: various concentrations; for Period effect compared with longdaysin: Figure S10
Experimental: (§2) The compound screen was done with the high-throughput circadian assay system as described previously. In brief, Bmal1-dLuc U2OS cells were suspended in the culture medium (DMEM supplemented with 10% fetal bovine serum, 0.29 mg/ml L-glutamine, 100 units/ml penicillin, and 100 µg/ml streptomycin) and plated onto 384-well white solid-bottom plates at 20 µl (2,000 cells) per well. After 2 d, 50 µl of the explant medium (DMEM supplemented with 2% B27, 10 mM HEPES, 0.38 mg/ml sodium bicarbonate, 0.29 mg/ml L-glutamine, 100 units/ml penicillin, 100 µg/ml streptomycin, 0.1 mg/ml gentamicin, and 1 mM luciferin, pH 7.2) was dispensed to each well, followed by the application of 500 nl of compounds (dissolved in DMSO; final 0.7% DMSO). The plate was covered with an optically clear film and set to luminescence monitoring system equipped with a CCD imager (ViewLux, Perkin Elmer). The luminescence was recorded every 2 h for 3–4 days. In follow-up studies, the luminescence was recorded every 100 min by using a microplate reader (Infinite M200, Tecan). The period parameter was obtained from the luminescence rhythm by curve fitting program CellulaRhythm or MultiCycle (Actimetrics), both of which gave similar results.

CKIδ = CKIδ (Homo sapiens, UniProt P48730); test: In vitro kinase assay, CKIδ; format: biochemical; set-up: purchased Millipore 14-520
Experimental: as §1

Bmal1-dLuc U2OS cells [2] = test: Cytotoxicity in the U2OS circadian assay; format: cell-based, human
Experimental: as §2

SCN explants = system: SCN explants; set-up: method as in PMID 18448638; conditions: ref [59]; cited from earlier work

T2 sequence (P50613 whole entry): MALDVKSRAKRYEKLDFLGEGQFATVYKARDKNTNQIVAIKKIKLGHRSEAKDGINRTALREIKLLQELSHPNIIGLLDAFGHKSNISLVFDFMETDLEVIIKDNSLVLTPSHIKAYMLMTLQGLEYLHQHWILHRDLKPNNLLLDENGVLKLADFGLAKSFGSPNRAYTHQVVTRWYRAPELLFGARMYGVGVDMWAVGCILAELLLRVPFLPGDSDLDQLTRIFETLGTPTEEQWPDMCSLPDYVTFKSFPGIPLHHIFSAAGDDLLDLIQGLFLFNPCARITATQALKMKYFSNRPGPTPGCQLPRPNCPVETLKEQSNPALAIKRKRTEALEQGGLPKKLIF
T2 sequence (P51946 whole entry partner): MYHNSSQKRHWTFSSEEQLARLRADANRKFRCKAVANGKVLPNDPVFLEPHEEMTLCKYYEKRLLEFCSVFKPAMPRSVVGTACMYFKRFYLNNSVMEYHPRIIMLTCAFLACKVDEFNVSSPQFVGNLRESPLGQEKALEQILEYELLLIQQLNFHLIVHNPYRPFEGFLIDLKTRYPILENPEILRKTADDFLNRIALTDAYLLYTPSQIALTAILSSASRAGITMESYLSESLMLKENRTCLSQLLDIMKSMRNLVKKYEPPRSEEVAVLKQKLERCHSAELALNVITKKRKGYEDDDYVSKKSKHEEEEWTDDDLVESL
T2 sequence (P51948 whole entry partner): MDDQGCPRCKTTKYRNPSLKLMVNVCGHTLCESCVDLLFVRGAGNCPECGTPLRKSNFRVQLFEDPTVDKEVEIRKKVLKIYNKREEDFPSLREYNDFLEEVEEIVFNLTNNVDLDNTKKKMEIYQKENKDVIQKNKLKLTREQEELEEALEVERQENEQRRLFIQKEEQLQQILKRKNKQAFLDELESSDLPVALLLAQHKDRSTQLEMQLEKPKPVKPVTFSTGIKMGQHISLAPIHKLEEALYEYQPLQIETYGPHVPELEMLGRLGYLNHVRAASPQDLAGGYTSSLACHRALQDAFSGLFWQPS
T1 sequence (P28482 whole entry, species assumed): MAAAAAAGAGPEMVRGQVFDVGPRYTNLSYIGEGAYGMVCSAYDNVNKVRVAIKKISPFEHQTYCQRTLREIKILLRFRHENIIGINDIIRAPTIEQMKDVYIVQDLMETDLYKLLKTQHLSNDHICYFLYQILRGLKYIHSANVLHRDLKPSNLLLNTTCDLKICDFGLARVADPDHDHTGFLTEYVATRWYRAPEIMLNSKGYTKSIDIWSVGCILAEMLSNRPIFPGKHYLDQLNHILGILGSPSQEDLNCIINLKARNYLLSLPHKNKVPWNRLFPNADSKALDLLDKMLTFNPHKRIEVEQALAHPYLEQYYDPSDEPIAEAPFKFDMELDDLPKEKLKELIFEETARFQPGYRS
CKIα, sequence (P48729 whole entry): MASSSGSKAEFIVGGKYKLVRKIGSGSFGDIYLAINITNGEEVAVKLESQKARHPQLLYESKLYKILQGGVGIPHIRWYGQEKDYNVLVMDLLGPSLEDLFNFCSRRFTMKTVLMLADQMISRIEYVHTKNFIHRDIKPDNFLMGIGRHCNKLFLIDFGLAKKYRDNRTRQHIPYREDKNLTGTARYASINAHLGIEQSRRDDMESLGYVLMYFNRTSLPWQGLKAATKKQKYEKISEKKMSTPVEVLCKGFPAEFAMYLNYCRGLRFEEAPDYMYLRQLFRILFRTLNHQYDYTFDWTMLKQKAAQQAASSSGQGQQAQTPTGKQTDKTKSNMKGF
CKIδ, sequence (P48730 whole entry, species assumed): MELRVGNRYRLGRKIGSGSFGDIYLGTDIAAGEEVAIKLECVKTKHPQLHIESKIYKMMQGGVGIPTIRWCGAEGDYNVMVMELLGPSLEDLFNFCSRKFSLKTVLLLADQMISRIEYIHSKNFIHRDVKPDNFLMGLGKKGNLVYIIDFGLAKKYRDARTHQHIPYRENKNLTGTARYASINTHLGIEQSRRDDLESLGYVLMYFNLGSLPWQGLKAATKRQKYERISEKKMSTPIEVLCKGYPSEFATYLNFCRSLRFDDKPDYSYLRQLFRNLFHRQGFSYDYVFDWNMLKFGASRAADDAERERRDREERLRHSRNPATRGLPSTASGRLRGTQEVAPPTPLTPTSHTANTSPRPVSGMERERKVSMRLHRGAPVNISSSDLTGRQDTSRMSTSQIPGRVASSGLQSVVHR

SMILES: NCCNS(=O)(=O)c1ccc(Cl)c2ccncc12 [CKI-7]
Effect on period in cultured cells (cultured cells): period lengthening

IC50 (ERK2; ATP 5 µM, from Figure 2E): 160 µM
Potency against ERK2 relative to longdaysin (times less) (ERK2; in vitro kinase assay): ~3 times
IC50 (CDK7; ATP 5 µM, from Figure 2E): 29 µM
Inhibition of CDK7 compared with longdaysin (CDK7; in vitro kinase assay): inhibited CDK7 similarly to longdaysin
IC50 (CKIα; ATP 5 µM, from Figure 2E): 23 µM
Potency against CKIα relative to longdaysin (times less) (CKIα; in vitro kinase assay): ~3 times
IC50 (CKIδ; ATP 5 µM, from Figure 2E): 21 µM
Potency against CKIδ relative to longdaysin (times less) (CKIδ; in vitro kinase assay): ~3 times
SMILES: CC(C)n1cnc2c(NCc3ccccc3)ncnc21 [Compound 1, N-benzyl-9-isopropyl-9H-purin-6-amine]
Effect on circadian period (Bmal1-dLuc U2OS cells [1]): strongly lengthened the period in a dose-dependent manner
Concentration for period change, 5 h (Bmal1-dLuc U2OS cells [1]; from Figure 1B): 4.4 µM
Concentration for period change, 10 h (Bmal1-dLuc U2OS cells [1]; from Figure 1B): 17 µM
Concentration for period change, 15 h (Bmal1-dLuc U2OS cells [1]; from Figure 1B): 38 µM

SMILES: CC(=O)NCCCCCCNc1nc(NCc2cccc(C(F)(F)F)c2)c2ncn(C(C)C)c2n1 [Compound 2, N-(6-(9-isopropyl-6-(3-(trifluoromethyl)benzylamino)-9H-purin-2-ylamino)hexyl)acetamide]
Effect on circadian period (Bmal1-dLuc U2OS cells [1]): retained the period lengthening effect

SMILES: NC(=O)c1ccc(-c2nc(-c3ccc4c(c3)OCCO4)c(-c3ccccn3)[nH]2)cc1 [Compound D4476, reference compound]
Concentration showing cytotoxicity (Bmal1-dLuc U2OS cells [2]): 71 µM
Period effect compared with longdaysin (Bmal1-dLuc U2OS cells [1]): smaller period effects
Effect on period in cultured cells (cultured cells): period lengthening

SMILES: N#CC(=C(/N)Sc1ccccc1N)/C(C#N)=C(/N)Sc1ccccc1N [Compound U0126]
Effect on circadian rhythms in SCN explants (SCN explants): Attenuation of the circadian rhythms

SMILES: COc1cc(OC)c(C=C2C(O)=Nc3ccccc32)c(OC)c1 [IC261, reference compound]
Period effect compared with longdaysin (Bmal1-dLuc U2OS cells [1]): smaller period effects
Effect on period in cultured cells (cultured cells): period lengthening
